Reference: ChEMBL document CHEMBL1146996, “Hispidin analogs from the mushroom Inonotus xeranticus and their free radical scavenging activity” (Bioorg Med Chem Lett, 2006)

Columns and labels:
Format in all cases: functional
[1] = system: Radical scavenging activity; experiment: Superoxide radical scavenging activity
[2] = system: Radical scavenging activity; experiment: ABTS radical scavenging activity
[3] = system: Radical scavenging activity; experiment: DPPH radical scavenging activity

| SMILES | IC50 [1] [µM] | IC50 [2] [µM] | IC50 [3] [µM] |
| --- | --- | --- | --- |
| O=C(O)/C=C/c1ccc(O)c(O)c1 [CAFFEIC ACID] | 2.9 | 2.8 | 31.7 |
| CC1=CC(=O)[C@H](c2c(O)cc(/C=C/c3ccc(O)c(O)c3)oc2=O)[C@@H](c2ccc(O)c(O)c2)O1 [DAVALLIALACTONE] | 2.3 | 0.8 | 3.4 |
| CC(=O)c1c(-c2ccc(O)c(O)c2)oc2cc(/C=C/c3ccc(O)c(O)c3)oc(=O)c12 [INOSCAVIN C] | > 100 | 7.8 | > 100 |
| COc1cc(/C=C/c2cc(O)c([C@H]3C(=O)C=C(C)O[C@@H]3c3ccc(O)c(O)c3)c(=O)o2)ccc1O [METHYLDAVALLIALACTONE] | 5.4 | 1.5 | 18.7 |
| COc1cc(/C=C/c2cc3oc(-c4ccc(O)c(O)c4)c(C(C)=O)c3c(=O)o2)ccc1O [METHYLINOSCAVIN C] | > 100 | 12.3 | > 100 |
